In US6737383B1, “Herbicidal oxadiazolidines” (priority 1999, dated 2004):

Columns and labels:
[1] = test system: rice; assay: Test B flood test rice; format: in vivo, Oryza sativa
In short: (§1)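 Read-out is a visual response score from 0 (no effect) to 10 (complete control), assigned by comparison with untreated controls. Treatment was applied at the 2-leaf stage, and plants stayed in the greenhouse for twelve to sixteen days before scoring.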

[2] = test system: bamyardgrass; assay: Test B flood test barnyardgrass; format: in vivo, Echinochloa crus-galli
In short: as §1

[3] = test system: crabgrass; assay: Test B pre/postemergence crabgrass; format: in vivo, Digitaria sanguinalis; details: for Crabgrass plant response rating: scale of 0 to 10 where 0 is no effect and 10 is complete control
In short: (§2)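 Herbicidal effect was estimated by eye on a ten-point control scale after plants spent twelve to sixteen days in a greenhouse following soil or foliar treatment. Foliar sprays targeted plants at one to four leaves; all doses were formulated in a non-phytotoxic solvent with surfactant.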

[4] = test system: morningglory; assay: Test B pre/postemergence morningglory; format: in vivo, Ipomoea hederacea; details: for Morningglory plant response rating: scale of 0 to 10 where 0 is no effect and 10 is complete control
In short: as §2

[5] = test system: wild oat; assay: Test B pre/postemergence wild oat; format: in vivo, Avena fatua; details: for Wild oats plant response rating: scale of 0 to 10 where 0 is no effect and 10 is complete control
In short: as §2

[6] = test system: surinam grass; assay: Test B pre/postemergence surinam grass; format: in vivo, Brachiaria decumbens; details: for B. signalgrass plant response rating: scale of 0 to 10 where 0 is no effect and 10 is complete control
In short: as §2

[7] = test system: duck salad; assay: Test B flood test duck salad; format: in vivo, Heteranthera limosa
In short: as §1

[8] = test system: smallflower flatsedge; assay: Test B flood test smallflower flatsedge; format: in vivo, Cyperus difformis
In short: as §1

[9] = test system: pigweed; assay: Test B pre/postemergence pigweed; format: in vivo, Amaranthus retroflexus; details: for Redroot pigweed plant response rating: scale of 0 to 10 where 0 is no effect and 10 is complete control
In short: as §2

[10] = test system: giant foxtail; assay: Test B pre/postemergence giant foxtail; format: in vivo, Setaria faberii; details: for Giant foxtail plant response rating: scale of 0 to 10 where 0 is no effect and 10 is complete control
In short: as §2

[11] = test system: sugar beet; assay: Test B pre/postemergence sugar beet; format: in vivo, Beta vulgaris; details: for Sugarbeets plant response rating: scale of 0 to 10 where 0 is no effect and 10 is complete control
In short: as §2

[12] = test system: cocklebur; assay: Test B pre/postemergence cocklebur; format: in vivo, Xanthium strumarium; details: for Cocklebur plant response rating: scale of 0 to 10 where 0 is no effect and 10 is complete control
In short: as §2

[13] = test system: rape; assay: Test B pre/postemergence rape; format: in vivo, Brassica napus; details: for Rape plant response rating: scale of 0 to 10 where 0 is no effect and 10 is complete control
In short: as §2

[14] = test system: purple nutsedge; assay: Test B pre/postemergence purple nutsedge; format: in vivo, Cyperus rotundus; details: for Nutsedge plant response rating: scale of 0 to 10 where 0 is no effect and 10 is complete control
In short: as §2

[15] = test system: corn; assay: Test B pre/postemergence corn; format: in vivo, Zea mays; details: for Corn plant response rating: scale of 0 to 10 where 0 is no effect and 10 is complete control
In short: as §2

[16] = test system: soybean; assay: Test B pre/postemergence soybean; format: in vivo, Glycine max; details: for Soybean plant response rating: scale of 0 to 10 where 0 is no effect and 10 is complete control
In short: as §2

[17] = Rate 62 g/ha, flood test species, Pre-emergence, visual evaluation after twelve to sixteen days
[18] = Rate 125 g/ha, under heading Pre-emergence, flood test species, visual evaluation after twelve to sixteen days
[19] = Rate 250 g/ha, Pre-emergence, flood-test species, scale 0 to 10, 0 is no effect, 10 is complete control
[20] = Rate 500 g/ha, Pre-emergence, flood test species, scale 0 to 10 (0 no effect, 10 complete control)
[21] = Postemergence, Rate 125 g/ha, scale 0 to 10, 0 is no effect, 10 is complete control
[22] = Postemergence, Rate 250 g/ha, scale 0 to 10, 0 is no effect, 10 is complete control
[23] = Preemergence, Rate 62 g/ha, scale 0 to 10 (0 no effect, 10 complete control)
[24] = Rate 500 g/ha, Postemergence, scale 0 to 10, 0 no effect, 10 complete control

## CC1CC1n1c(=O)on(C(=O)N(c2ccc(F)cc2)C(C)C)c1=O (stereo not shown) [Compound 371]
[1]; [17]
  Plant response rating, Rice (0 to 10 scale, 0 is no effect, 10 is complete control): 0
[1]; [18]
  Rice plant response rating (0 to 10 scale, 0 is no effect, 10 is complete control): 0
[1]; [19]
  Rice plant response rating: 0
[1]; [20]
  Rice plant response rating: 5
[2]; [17]
  Plant response rating, Barnyardgrass (0 to 10 scale, 0 is no effect, 10 is complete control): 0
[2]; [18]
  Barnyardgrass plant response rating (0 to 10 scale, 0 is no effect, 10 is complete control): 0
[2]; [19]
  Barnyardgrass plant response rating: 0
[2]; [20]
  Barnyardgrass plant response rating: 7
[3]; [21]
  Plant response rating, Crabgrass: 4
[3]; [22]
  Plant response rating, Crabgrass: 8
[3]; [23]
  Plant response rating, Crabgrass: 8
[3]; Preemergence, Rate 125 g/ha
  Crabgrass plant response rating (0 to 10 scale): 10
[3]; Preemergence, Rate 250 g/ha
  Crabgrass plant response rating: 10
[3]; Preemergence, Rate 500 g/ha
  Crabgrass plant response rating: 10
[3]; Rate 62 g/ha, Postemergence
  Crabgrass plant response rating: 3
[3]; [24]
  Plant response rating, Crabgrass: 9
[4]; [21]
  Plant response rating, Morningglory: 7
[4]; [22]
  Plant response rating, Morningglory: 7
[4]; [23]
  Plant response rating, Morningglory: 0
[4]; Preemergence, Rate 125 g/ha
  Morningglory plant response rating (0 to 10 scale): 0
[4]; Preemergence, Rate 250 g/ha
  Morningglory plant response rating: 0
[4]; Preemergence, Rate 500 g/ha
  Morningglory plant response rating: 3
[4]; Rate 62 g/ha, Postemergence
  Morningglory plant response rating: 7
[4]; [24]
  Plant response rating, Morningglory: 10
[5]; [21]
  Plant response rating, Wild oats: 0
[5]; [22]
  Plant response rating, Wild oats: 3
[5]; [23]
  Plant response rating, Wild oats: 0
[5]; Preemergence, Rate 125 g/ha
  Wild oats plant response rating (0 to 10 scale): 3
[5]; Preemergence, Rate 250 g/ha
  Wild oats plant response rating: 3
[5]; Preemergence, Rate 500 g/ha
  Wild oats plant response rating: 6
[5]; Rate 62 g/ha, Postemergence
  Wild oats plant response rating: 0
[5]; [24]
  Plant response rating, Wild oats: 4
[6]; [21]
  Plant response rating, B. signalgrass: 0
[6]; [22]
  Plant response rating, B. signalgrass: 3
[6]; [23]
  Plant response rating, B. signalgrass: 0
[6]; Preemergence, Rate 125 g/ha
  B. signalgrass plant response rating (0 to 10 scale, 0 is no effect, 10 is complete control): 2
[6]; Preemergence, Rate 250 g/ha
  B. signalgrass plant response rating: 2
[6]; Preemergence, Rate 500 g/ha
  B. signalgrass plant response rating: 4
[6]; Rate 62 g/ha, Postemergence
  B. signalgrass plant response rating: 0
[6]; [24]
  Plant response rating, B. signalgrass: 6
[7]; [17]
  Plant response rating, Ducksalad (0 to 10 scale, 0 is no effect, 10 is complete control): 0
[7]; [18]
  Ducksalad plant response rating (0 to 10 scale, 0 is no effect, 10 is complete control): 0
[7]; [19]
  Ducksalad plant response rating: 0
[7]; [20]
  Ducksalad plant response rating: 2
[8]; [17]
  Plant response rating, S. Flatsedge (0 to 10 scale, 0 is no effect, 10 is complete control): 0
[8]; [18]
  S. Flatsedge plant response rating (0 to 10 scale, 0 is no effect, 10 is complete control): 0
[8]; [19]
  S. Flatsedge plant response rating: 0
[8]; [20]
  S. Flatsedge plant response rating: 3
[9]; [21]
  Plant response rating, Redroot pigweed: 0
[9]; [22]
  Plant response rating, Redroot pigweed: 2
[9]; [23]
  Plant response rating, Redroot pigweed: 4
[9]; Preemergence, Rate 125 g/ha
  Redroot pigweed plant response rating (0 to 10 scale): 10
[9]; Preemergence, Rate 250 g/ha
  Redroot pigweed plant response rating: 10
[9]; Preemergence, Rate 500 g/ha
  Redroot pigweed plant response rating: 10
[9]; Rate 62 g/ha, Postemergence
  Redroot pigweed plant response rating: 0
[9]; [24]
  Plant response rating, Redroot pigweed: 5
[10]; [21]
  Plant response rating, Giant foxtail: 7
[10]; [22]
  Plant response rating, Giant foxtail: 8
[10]; [23]
  Plant response rating, Giant foxtail: 10
[10]; Preemergence, Rate 125 g/ha
  Giant foxtail plant response rating (0 to 10 scale): 10
[10]; Preemergence, Rate 250 g/ha
  Giant foxtail plant response rating: 10
[10]; Preemergence, Rate 500 g/ha
  Giant foxtail plant response rating: 10
[10]; Rate 62 g/ha, Postemergence
  Giant foxtail plant response rating: 5
[10]; [24]
  Plant response rating, Giant foxtail: 9
[11]; [21]
  Plant response rating, Sugarbeets: 0
[11]; [22]
  Plant response rating, Sugarbeets: 0
[11]; [23]
  Plant response rating, Sugarbeets: 0
[11]; Preemergence, Rate 125 g/ha
  Sugarbeets plant response rating (0 to 10 scale): 6
[11]; Preemergence, Rate 250 g/ha
  Sugarbeets plant response rating: 6
[11]; Preemergence, Rate 500 g/ha
  Sugarbeets plant response rating: 10
[11]; Rate 62 g/ha, Postemergence
  Sugarbeets plant response rating: 0
[11]; [24]
  Plant response rating, Sugarbeets: 0
[12]; [21]
  Plant response rating, Cocklebur: 0
[12]; [22]
  Plant response rating, Cocklebur: 0
[12]; [23]
  Plant response rating, Cocklebur: 0
[12]; Preemergence, Rate 125 g/ha
  Cocklebur plant response rating (0 to 10 scale): 0
[12]; Preemergence, Rate 250 g/ha
  Cocklebur plant response rating: 0
[12]; Preemergence, Rate 500 g/ha
  Cocklebur plant response rating: 0
[12]; Rate 62 g/ha, Postemergence
  Cocklebur plant response rating: 0
[12]; [24]
  Plant response rating, Cocklebur: 0
[13]; [21]
  Plant response rating, Rape: 0
[13]; [22]
  Plant response rating, Rape: 0
[13]; [23]
  Plant response rating, Rape: 0
[13]; Preemergence, Rate 125 g/ha
  Rape plant response rating (0 to 10 scale): 4
[13]; Preemergence, Rate 250 g/ha
  Rape plant response rating: 9
[13]; Preemergence, Rate 500 g/ha
  Rape plant response rating: 10
[13]; Rate 62 g/ha, Postemergence
  Rape plant response rating: 0
[13]; [24]
  Plant response rating, Rape: 0
[14]; [21]
  Plant response rating, Nutsedge: 0
[14]; [22]
  Plant response rating, Nutsedge: 0
[14]; [23]
  Plant response rating, Nutsedge: 0
[14]; Preemergence, Rate 125 g/ha
  Nutsedge plant response rating (0 to 10 scale): 0
[14]; Preemergence, Rate 250 g/ha
  Nutsedge plant response rating: 5
[14]; Preemergence, Rate 500 g/ha
  Nutsedge plant response rating: 9
[14]; Rate 62 g/ha, Postemergence
  Nutsedge plant response rating: 0
[14]; [24]
  Plant response rating, Nutsedge: 0
[15]; [21]
  Plant response rating, Corn: 0
[15]; [22]
  Plant response rating, Corn: 0
[15]; [23]
  Plant response rating, Corn: 0
[15]; Preemergence, Rate 125 g/ha
  Corn plant response rating (0 to 10 scale): 0
[15]; Preemergence, Rate 250 g/ha
  Corn plant response rating: 2
[15]; Preemergence, Rate 500 g/ha
  Corn plant response rating: 7
[15]; Rate 62 g/ha, Postemergence
  Corn plant response rating: 0
[15]; [24]
  Plant response rating, Corn: 1
[16]; [21]
  Plant response rating, Soybean: 1
[16]; [22]
  Plant response rating, Soybean: 1
[16]; [23]
  Plant response rating, Soybean: 0
[16]; Preemergence, Rate 125 g/ha
  Soybean plant response rating (0 to 10 scale): 0
[16]; Preemergence, Rate 250 g/ha
  Soybean plant response rating: 0
[16]; Preemergence, Rate 500 g/ha
  Soybean plant response rating: 2
[16]; Rate 62 g/ha, Postemergence
  Soybean plant response rating: 1
[16]; [24]
  Plant response rating, Soybean: 4
